Key:
[1] = test system: Activated Calf Thymus DNA; assay: DNA/methyl green assay (DNA intercalation); format: binding
Procedure: The most promising members (13a, 14a, 16, 17, 18, 19, and 20) were further investigated for their binding affinity against DNA. […] The results of DNA-binding affinities were reported in Table 1 as IC50 values calculated from the concentration-inhibition response curve.
Activated Calf Thymus DNA (Merk, Germany) was treated with methyl green (Merk, Germany), then the synthesized compounds were applied to displace the methyl green dye, producing equivalent color.
(§1) After that, the DNA was run on 1% agarose gel in BioRad gel electrophoresis system for 1–2 h followed by staining with GelRedTM stain for 2 h and destained for 15 min with TAE buffer. The gel was imaged via BioRad’s Gel DocTMEZ system. Both supercoiled and linear strands DNA were incorporated in the gel as markers for DNA-Topo II intercalators. The results of IC50 values were calculated using the GraphPad Prism version 7. Each reaction was performed in duplicate, and at least three independent determinations of each IC50 were made.
(§2) S2.3. DNA/Methyl Green Assay […]
methyl green dye method described by Burres et al. Activated Calf Thymus DNA (Merk, Germany) was treated with methyl green (Merk, Germany), then the synthesized compounds were applied to displace the methyl green dye, producing equivalent color. […]

[2] = target: Topo II α and supercoiled pBR322 DNA (Homo sapiens, UniProt P11388); assay: Topo II-mediated DNA cleavage assay; format: biochemical
Topo II α and supercoiled pBR322 DNA, sequence (P11388 whole entry): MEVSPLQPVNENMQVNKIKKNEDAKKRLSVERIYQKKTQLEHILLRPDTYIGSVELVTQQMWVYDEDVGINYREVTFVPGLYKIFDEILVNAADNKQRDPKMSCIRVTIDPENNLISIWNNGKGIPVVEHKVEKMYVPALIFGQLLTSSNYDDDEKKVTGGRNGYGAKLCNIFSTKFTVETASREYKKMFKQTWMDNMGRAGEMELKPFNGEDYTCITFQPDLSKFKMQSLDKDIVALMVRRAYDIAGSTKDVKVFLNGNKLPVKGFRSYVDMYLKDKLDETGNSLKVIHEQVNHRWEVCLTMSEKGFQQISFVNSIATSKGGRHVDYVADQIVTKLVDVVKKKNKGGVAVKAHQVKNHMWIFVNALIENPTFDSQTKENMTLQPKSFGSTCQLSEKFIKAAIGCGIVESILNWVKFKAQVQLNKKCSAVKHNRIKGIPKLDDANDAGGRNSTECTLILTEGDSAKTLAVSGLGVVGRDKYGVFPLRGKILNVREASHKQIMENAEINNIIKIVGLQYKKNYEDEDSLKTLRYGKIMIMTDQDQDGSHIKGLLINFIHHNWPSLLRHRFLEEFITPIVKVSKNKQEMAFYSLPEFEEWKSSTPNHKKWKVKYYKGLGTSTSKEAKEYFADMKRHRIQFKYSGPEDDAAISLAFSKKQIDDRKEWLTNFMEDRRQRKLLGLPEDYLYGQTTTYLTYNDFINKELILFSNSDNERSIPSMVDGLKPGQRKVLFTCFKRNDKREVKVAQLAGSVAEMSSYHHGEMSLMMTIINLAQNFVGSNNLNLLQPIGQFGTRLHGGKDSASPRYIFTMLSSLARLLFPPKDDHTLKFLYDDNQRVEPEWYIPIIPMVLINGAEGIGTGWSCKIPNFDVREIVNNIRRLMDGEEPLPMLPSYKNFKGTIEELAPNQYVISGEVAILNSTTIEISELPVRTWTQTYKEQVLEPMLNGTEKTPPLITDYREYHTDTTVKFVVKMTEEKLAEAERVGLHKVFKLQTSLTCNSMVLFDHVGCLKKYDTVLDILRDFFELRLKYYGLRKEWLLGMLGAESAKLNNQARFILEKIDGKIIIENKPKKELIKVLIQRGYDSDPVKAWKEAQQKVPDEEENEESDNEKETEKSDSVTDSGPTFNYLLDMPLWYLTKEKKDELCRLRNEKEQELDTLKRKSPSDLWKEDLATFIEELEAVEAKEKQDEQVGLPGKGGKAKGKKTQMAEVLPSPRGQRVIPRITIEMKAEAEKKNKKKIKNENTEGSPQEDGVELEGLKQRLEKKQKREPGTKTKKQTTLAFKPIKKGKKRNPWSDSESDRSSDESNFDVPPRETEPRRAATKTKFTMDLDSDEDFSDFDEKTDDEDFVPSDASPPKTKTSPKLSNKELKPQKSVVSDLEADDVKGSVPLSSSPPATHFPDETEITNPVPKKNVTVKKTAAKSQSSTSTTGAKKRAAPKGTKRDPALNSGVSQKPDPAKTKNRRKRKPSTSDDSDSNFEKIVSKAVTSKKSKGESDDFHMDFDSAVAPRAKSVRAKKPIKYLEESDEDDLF
Procedure: The Topo II inhibitors may act through two pathways. Firstly, it can stabilize the Topo II-DNA covalent complexes leading to the formation of linear DNA (Topo II poisons). Secondly, it can block the catalytic site of Topo II (Topo II catalytic inhibitors).
Topo II-mediated DNA cleavage assay was carried out according the reported method by Huang et al. as follows.
Topo II α (10 U), supercoiled pBR322 DNA (0.2 μg) and compound 16 at concentration of 5 and 10 μM were added in Topo II buffer ([…], pH 8.0, 150 mM NaCl, 10 mM MgCl2 2mM ATP, 0.5mM dithiothreitol, and 30 μg/mL BSA) of 20 μL volume. After incubating for 6 min at 37°C and then respectively adding 2 μL of 10% SDS, 2 μL of 250mM NaEDTA, pH 8.0, 2 μL of 0.8 mg/mL Proteinase K. Following reactions were incubated for another 30 min at 45°C. Samples were mixed with 4 μL of 6×loading buffer, heated at 70°C for 2 min and subjected to electrophoresis in a 1% agarose gel in 1×TAE buffer (30 mL) with 1 μL Gel Red. Finally, DNA bands were visualized by using UV light, photographed by using Alpha Innotech digital imaging system.
as §1, §2
methyl green dye method described by Burres et al. Activated Calf Thymus DNA (Merk, Germany) was treated with methyl green (Merk, Germany), then the synthesized compounds were applied to displace the methyl green dye, producing equivalent color. The results were reported […]
S2.4. Topo II-mediated DNA cleavage assay […]

SMILES: CCCNc1nc2ccccc2c2nnc(C(F)(F)F)n12 [Compound 16, N-Propyl-3-(trifluoromethyl)-[1,2,4]triazolo[4,3-c]quinazolin-5-amine]
- IC50 ([1]; 50% inhibition concentration of DNA/methyl green assay, read-out: DNA/Methyl green (IC50)): 10.2 ± 0.4 µM
- LogIC50 (best-fit value, DNA/Topo-II Inhibition (%) curve) ([1]; log of drug concentration in uM, supplement curve fit): 1.011
- HillSlope (best-fit value, DNA/Topo-II Inhibition (%) curve) ([1]; supplement curve fit): 0.3743
- Effect on relaxation of supercoiled DNA by Topo II ([2]; 5 μM): induced relaxation for the DNA
- Effect on relaxation of supercoiled DNA by Topo II ([2]; 10 μM): blocked the formation of relaxed DNA
- Formation of linear DNA ([2]; all concentrations (5 and 10 μM)): the linear DNA was not formed

Source: publication PMC9886266, “New [1,2,4]triazolo[4,3-c]quinazolines as intercalative Topo II inhibitors: Design, synthesis, biological evaluation, and in silico studies” (PLOS ONE, 2023)
